Measured values as given in publication PMC5733478, “A Non-imaging High Throughput Approach to Chemical Library Screening at the Unmodified Adenosine-A3 Receptor in Living Cells” (Frontiers in Pharmacology, 2017).
Structures can show the parent of a compound that is named as a salt.

These compounds were tested against T1, human A3AR (Homo sapiens, UniProt P0DMS8) (assay: LOPAC library primary screen: single concentration (10 μM) inhibition of 25 nM CA200645 binding, PHERAstar FS). Conditions: not given.
T1 construct: expressed in transfected cells
T1 sequence (P0DMS8 1-318): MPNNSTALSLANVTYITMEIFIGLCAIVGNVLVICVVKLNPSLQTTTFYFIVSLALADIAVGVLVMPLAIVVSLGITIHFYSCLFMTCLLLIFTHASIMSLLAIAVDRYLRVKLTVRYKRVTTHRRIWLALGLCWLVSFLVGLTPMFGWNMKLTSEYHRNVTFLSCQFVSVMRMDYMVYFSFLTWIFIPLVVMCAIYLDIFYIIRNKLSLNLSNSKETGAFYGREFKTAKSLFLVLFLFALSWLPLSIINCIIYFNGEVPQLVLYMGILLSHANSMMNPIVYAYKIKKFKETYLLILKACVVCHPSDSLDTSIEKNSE
In the case of `COc1ccc(/C=C/C(=O)Nc2ccccc2C(=O)O)cc1OC` [Tranilast], the “% 25 nM CA200645 binding” value is reported as 95.7 ± 1.4%.
In the case of `COc1ccc2c(c1)c(CC(=O)O)c(C)n2Cc1ccc(Cl)cc1`, the “% 25 nM CA200645 binding” value is reported as 97.1 ± 10.6%.
`NCCCCNCCCN` [Spermidine trihydrochloride] was tested, and the “% 25 nM CA200645 binding” value was 102.2 ± 19.0%.
For `CC(C)NCC(O)c1ccc(O)c(O)c1.Cl` (racemic) [(±)-Isoproterenol hydrochloride], the “% 25 nM CA200645 binding” value was 95.3 ± 10.4%.
`CO[C@@]1(NC(=O)CSCC#N)C(=O)N2C(C(=O)O)=C(CSc3nnnn3C)CS[C@@H]21` [Cefmetazole sodium] was tested, and the “% 25 nM CA200645 binding” value was 84.6 ± 22.3%.
For `CCCCCCCCCCC(C)(C)C(=O)Nc1c(OC)cc(OC)cc1OC` [CI-976], the “% 25 nM CA200645 binding” value was 89.4 ± 17.7%.
In the case of `CC(C)NC[C@@H](O)c1ccc(O)c(O)c1.O=C(O)C(O)C(O)C(=O)O` [S(+)-Isoproterenol (+)-bitartrate], the “% 25 nM CA200645 binding” value is reported as 101.2 ± 2.4%.
For `NCCCS(=O)(=O)O.[Na]` [3-Amino-1-propanesulfonic acid sodium], the “% 25 nM CA200645 binding” value was 96.5 ± 4.6%.
In the case of `CN/C(=N/CCSCc1nc[nH]c1C)NC#N` [Cimetidine], the “% 25 nM CA200645 binding” value is reported as 94.0 ± 4.0%.
With `Nc1nccc2c1ncn2[C@@H]1O[C@H](CO)[C@@H](O)[C@H]1O` [3-deazaadenosine] the “% 25 nM CA200645 binding” value was 93.8 ± 11.9%.
For `Cl.Cn1ccc2cc(NC(=O)Nc3cccnc3)ccc21` [SB 200646 hydrochloride], the “% 25 nM CA200645 binding” value was 81.7 ± 19.9%.
`NC(=NCc1ccccc1)NC(=O)c1nc(Cl)c(N)nc1N` [Benzamil hydrochloride] was tested, and the “% 25 nM CA200645 binding” value was 95.3 ± 5.6%.
For `Cl.O=C(c1ccc(OCCCc2cnc[nH]2)cc1)C1CC1` [Ciproxifan hydrochloride], the “% 25 nM CA200645 binding” value was 102.4 ± 6.2%.
`CC[N+](CC)(CC)CCOc1cccc(OCC[N+](CC)(CC)CC)c1OCC[N+](CC)(CC)CC` [Gallamine triethiodide] was tested, and the “% 25 nM CA200645 binding” value was 78.3 ± 38.7%.
With `CC(C)NCC(O)COc1ccc(COCCOC(C)C)cc1.CC(C)NCC(O)COc1ccc(COCCOC(C)C)cc1.O=C(O)/C=C/C(=O)O` (centres unmarked) [Bisoprolol hemifumarate salt] the “% 25 nM CA200645 binding” value was 106.9 ± 6.1%.
In the case of `NS(=O)(=O)c1ccc(-n2nc(C(F)(F)F)cc2-c2ccc(Cl)cc2)cc1` [SC-236], the “% 25 nM CA200645 binding” value is reported as 90.8 ± 15.2%.
`CCN1CCCC1CNC(=O)c1cc(S(N)(=O)=O)ccc1OC` (racemic) [(±)-Sulpiride] was tested, and the “% 25 nM CA200645 binding” value was 102.1 ± 6.1%.
With `N#CCCN.N#CCCN.O=C(O)/C=C/C(=O)O` [3-Aminopropionitrile fumarate] the “% 25 nM CA200645 binding” value was 91.9 ± 6.3%.
`C[C@](N)(CCP(=O)(O)O)C(=O)O.Cl` [(S)-MAP4 hydrochloride] was tested, and the “% 25 nM CA200645 binding” value was 89.0 ± 15.4%.
In the case of `NCCc1c[nH]c2ccccc12` [Tryptamine hydrochloride], the “% 25 nM CA200645 binding” value is reported as 98.8 ± 5.7%.
In the case of `c1ccc2cc(-c3ncc[nH]3)ccc2c1` [Benazoline oxalate], the “% 25 nM CA200645 binding” value is reported as 98.8 ± 14.3%.
In the case of `OCCN1CCN(CC/C=C2/c3ccccc3Sc3ccc(C(F)(F)F)cc32)CC1` [cis-(Z)-Flupenthixol dihydrochloride], the “% 25 nM CA200645 binding” value is reported as 96.5 ± 4.1%.
For `Fc1ccc2[nH]c(CN3CCN(c4ccccn4)CC3)cc2c1` [CP-226269], the “% 25 nM CA200645 binding” value was 83.6 ± 17.8%.
In the case of `COc1ccc(/C=C/c2nc(NCCCN(C)C)c3ccccc3n2)cc1.Cl.Cl.O` [CP-31398 dihydrochloride hydrate], the “% 25 nM CA200645 binding” value is reported as 111.8 ± 1.4%.
For `Nc1ccncc1` [4-Aminopyridine], the “% 25 nM CA200645 binding” value was 93.6 ± 7.2%.
With R(-)-Me5 the “% 25 nM CA200645 binding” value was 100.1 ± 8.0%.
`CC12NC(Cc3ccccc31)c1ccccc12.O=C(O)/C=C\C(=O)O` (single isomer, unassigned; (+)) [(+)-MK-801 hydrogen maleate] was tested, and the “% 25 nM CA200645 binding” value was 104.8 ± 18.5%.
`O=c1n(CCCN2CCN(c3cccc(Cl)c3)CC2)nc2ccccn12` [Trazodone hydrochloride] was tested, and the “% 25 nM CA200645 binding” value was 104.7 ± 11.3%.
In the case of `C[C@@H](c1ncncc1F)[C@](O)(Cn1cncn1)c1ccc(F)cc1F` [Voriconazole], the “% 25 nM CA200645 binding” value is reported as 96.1 ± 10.4%.
`COc1ccc2[nH]cc(CCN)c2c1.Cl` [O-Methylserotonin hydrochloride] was tested, and the “% 25 nM CA200645 binding” value was 107.2 ± 4.7%.
For `Cc1[nH]c(=O)c(C#N)cc1-c1ccncc1` [Milrinone], the “% 25 nM CA200645 binding” value was 97.0 ± 4.9%.
With Picrotoxin the “% 25 nM CA200645 binding” value was 96.8 ± 4.1%.
For `C[C@]12CCC(=O)C=C1CC[C@@H]1[C@@H]2[C@@H](O)C[C@@]2(C)[C@H]1CC[C@]2(O)C(=O)CO` [Hydrocortisone], the “% 25 nM CA200645 binding” value was 84.4 ± 24.1%.
For `CCCCCCCCCCCCCCCCCCOCC(COP(=O)([O-])OCC[N+](C)(C)C)OC` (centres unmarked) [ET-18-OCH3], the “% 25 nM CA200645 binding” value was 80.6 ± 4.5%.
For `Br.NCc1cc(O)no1` [Muscimol hydrobromide], the “% 25 nM CA200645 binding” value was 107.5 ± 2.4%.
In the case of `Brc1ccc([C@H]2CN3CCSC3=N2)cc1.O=C(O)C(=O)O` [S(-)-p-Bromotetramisole oxalate], the “% 25 nM CA200645 binding” value is reported as 68.6 ± 44.8%.
With `CN1C(=O)CCS(=O)(=O)C1c1ccc(Cl)cc1` (centres unmarked) [Chlormezanone] the “% 25 nM CA200645 binding” value was 101.4 ± 10.9%.
In the case of `Cl.NO` [Hydroxylamine hydrochloride], the “% 25 nM CA200645 binding” value is reported as 99.3 ± 3.4%.
`CN1C[C@H](CNC(=O)OCc2ccccc2)C[C@@H]2c3cccc4c3c(cn4C)C[C@H]21` [Metergoline] was tested, and the “% 25 nM CA200645 binding” value was 94.1 ± 8.5%.
With `Cl.c1ccc2c(c1)CCC[C@H]2Nc1nc2ccccc2[nH]1` [NS8593 hydrochloride] the “% 25 nM CA200645 binding” value was 91.2 ± 11.5%.
With `Br.CO[C@H]1CC=C2CCN3CCC4=C(CC(=O)OC4)[C@]23C1` [Dihydro-beta-erythroidine hydrobromide] the “% 25 nM CA200645 binding” value was 94.0 ± 5.4%.
In the case of `O=C(CCSCc1ccco1)NNC(=O)N1Cc2ccccc2Oc2ccc(Cl)cc21` [SC-51322], the “% 25 nM CA200645 binding” value is reported as 86.9 ± 5.7%.
For `Cl.Fc1ccc(C(OCCCc2c[nH]cn2)c2ccc(F)cc2)cc1`, the “% 25 nM CA200645 binding” value was 99.1 ± 1.1%.
In the case of `O=C(Nc1ccncc1)c1cc([N+](=O)[O-])ccc1Cl` [T0070907], the “% 25 nM CA200645 binding” value is reported as 110.9 ± 6.0%.
With `CC(C)C(=O)c1c(C(C)C)nn2ccccc12` [Ibudilast] the “% 25 nM CA200645 binding” value was 82.8 ± 12.0%.
In the case of `O=c1cc(-c2ccc(O)cc2)oc2cc(O)cc(O)c12` [Apigenin], the “% 25 nM CA200645 binding” value is reported as 41.8 ± 13.4%.
With `c1ccc(-c2ccccn2)nc1` [2,2'-Bipyridyl] the “% 25 nM CA200645 binding” value was 105.2 ± 7.5%.
With `CN(Cc1cnc2nc(N)nc(N)c2n1)c1ccc(C(=O)N[C@@H](CCC(=O)O)C(=O)O)cc1.O` [Methotrexate hydrate] the “% 25 nM CA200645 binding” value was 100.1 ± 8.9%.
For `Cl.N=C(N)NN` [Aminoguanidine hydrochloride], the “% 25 nM CA200645 binding” value was 100.9 ± 6.1%.
With `CC(N)C(O)c1ccc(O)c(O)c1` (single isomer, unassigned; (-)) [(-)-alpha-Methylnorepinephrine] the “% 25 nM CA200645 binding” value was 100.4 ± 6.1%.
With `CNCC(O)c1ccc(O)c(O)c1.Cl` (racemic) [(±)-Epinephrine hydrochloride] the “% 25 nM CA200645 binding” value was 95.7 ± 7.0%.
With LY-310,762 hydrochloride the “% 25 nM CA200645 binding” value was 93.0 ± 7.5%.
`COc1cccc(-c2cc(=O)c3ccccc3o2)c1N` [PD 98,059] was tested, and the “% 25 nM CA200645 binding” value was 80.7 ± 2.6%.
For `Fc1ccc(C(c2ccc(F)cc2)N2CCN(C/C=C/c3ccccc3)CC2)cc1` [Flunarizine dihydrochloride], the “% 25 nM CA200645 binding” value was 102.1 ± 8.8%.
`Cc1cn(C2CC(N=[N+]=[N-])C(CO)O2)c(=O)[nH]c1=O` (centres unmarked) [3'-Azido-3'-deoxythymidine] was tested, and the “% 25 nM CA200645 binding” value was 82.3 ± 18.1%.
In the case of `CC(C)NCC(O)c1ccc(NS(C)(=O)=O)cc1.Cl` (racemic) [(±)-Sotalol hydrochloride], the “% 25 nM CA200645 binding” value is reported as 93.5 ± 12.0%.
With `NCCCCCC(=O)O` [6-Aminohexanoic acid] the “% 25 nM CA200645 binding” value was 109.0 ± 9.6%.
In the case of `CC(=O)N1CCN(c2ccc(OCC3COC(Cn4ccnc4)(c4ccc(Cl)cc4Cl)O3)cc2)CC1` (centres unmarked) [Ketoconazole], the “% 25 nM CA200645 binding” value is reported as 98.9 ± 9.0%.
`Oc1cc(-c2ccccc2)nc2nc(Cl)ccc12` was tested, and the “% 25 nM CA200645 binding” value was 77.8 ± 8.8%.
For `O=C1NC(=O)C(c2ccccc2)(c2ccccc2)N1` [5,5-Diphenylhydantoin], the “% 25 nM CA200645 binding” value was 95.9 ± 12.2%.
In the case of `C=C[C@H]1C[N@@]2CC[C@H]1C[C@@H]2[C@@H](O)c1ccnc2ccc(OC)cc12` [Quinidine sulfate], the “% 25 nM CA200645 binding” value is reported as 111.6 ± 16.6%.
In the case of `CC(CCc1ccccc1)NCC(O)c1ccc(O)c(C(N)=O)c1` (centres unmarked) [Labetalol hydrochloride], the “% 25 nM CA200645 binding” value is reported as 97.5 ± 13.9%.
`CCN(CC)CCCN(c1ccccc1)C1Cc2ccccc2C1` [Aprindine hydrochloride] was tested, and the “% 25 nM CA200645 binding” value was 96.8 ± 13.3%.
`Cc1cccc(C(=O)NCN2CCN(c3ccccc3C#N)CC2)c1.O=C(O)/C=C\C(=O)O` [PD 168,077 maleate] was tested, and the “% 25 nM CA200645 binding” value was 92.4 ± 5.3%.
In the case of `CCN(CC)C(=S)SSC(=S)N(CC)CC` [Tetraethylthiuram disulfide], the “% 25 nM CA200645 binding” value is reported as 88.1 ± 9.2%.

Same assay, conditions: % of control wells (1% DMSO and 25 nM CA200645); compounds at 10 µM; […]; mean ± SD, three experiments in duplicate
`O=c1c(O)c(-c2ccc(O)c(O)c2)oc2cc(O)cc(O)c12` [Quercetin dihydrate] was tested, and the “% 25 nM CA200645 binding” value was 25.2 ± 6.9%.

Same assay, conditions: % of control wells (1% DMSO and 25 nM CA200645); compounds at 10 µM; whole live cells expressing the A3AR; mean ± SD, three experiments in duplicate
With `O=C(O)c1cc(=O)c2ccccc2[nH]1` [Kynurenic acid] the “% 25 nM CA200645 binding” value was 83.5 ± 10.7%.
With `Cc1ccccc1/C=C/C1=NCCN1` [Metrazoline oxalate] the “% 25 nM CA200645 binding” value was 97.1 ± 2.0%.
`NC(=Nc1ccccc1)NC(=O)c1nc(Cl)c(N)nc1N` [Phenamil methanesulfonate] was tested, and the “% 25 nM CA200645 binding” value was 100.4 ± 3.8%.

Same assay, conditions: compounds tested at 10 µM; % of control wells (1% DMSO and 25 nM CA200645); whole live cells expressing the A3AR; mean ± SD, three experiments in duplicate
With `C[C@]12CCC(=O)C=C1CC[C@@H]1[C@@H]2CC[C@@]2(C)[C@H]1CC[C@]2(O)C(=O)CO` [Cortexolone] the “% 25 nM CA200645 binding” value was 110.6 ± 19.2%.
For `COc1cccc2c1[C@@H]1CN(CCCCn3c(=O)[nH]c4c(sc5ncc(-c6ccccc6)nc54)c3=O)C[C@@H]1CO2` [Fiduxosin hydrochloride], the “% 25 nM CA200645 binding” value was 92.6 ± 13.4%.
